Laboratory results: the NIST ThermoML archive (doi:10.1021/je050333h)

Assay: cn = amount concentration of the nth substance listed, in mol/dm3
Details: 101 kPa, Liquid; for speed of sound: Sing-around technique in a fixed-path interferometer

CCCCC(CC)COC(=O)CC(C(=O)OCC(CC)CCCC)S(=O)(=O)[O-].[Na+] (stereo not given) [sodium bis(2-ethylhexyl) sulfosuccinate] + CC(C)CC(C)(C)C
Details	kinematic viscosity [m2/s]	mass density [kg/m3]	speed of sound [m/s]
293.15 K, c1 = 0.0993	8.03e-07	704.23	1103.5
293.15 K, c1 = 0.2006	9.05e-07	718.92	1104
293.15 K, c1 = 0.302	1.04e-06	736.65	1105.7
293.15 K, c1 = 0.4037	1.21e-06	754.54	1107.9
293.15 K, c1 = 0.5242	1.52e-06	775.5	1111.5
293.15 K, c1 = 0.6067	1.83e-06	794.1	1115.2
293.15 K, c1 = 0.7046	2.28e-06	812.69	1120.4
293.15 K, c1 = 0.8053	2.96e-06	829.38	1126.2
293.15 K, c1 = 0.9065	4.07e-06	847.23	1133.6
293.15 K, c1 = 1.012	5.97e-06	865.07	1142.4
298.15 K, c1 = 0.0987	7.58e-07	700.09	1082.4
298.15 K, c1 = 0.1994	8.56e-07	714.76	1083.1
298.15 K, c1 = 0.3003	9.87e-07	732.48	1085.1
298.15 K, c1 = 0.4017	1.14e-06	750.77	1087.3
298.15 K, c1 = 0.5213	1.42e-06	771.2	1091.2
298.15 K, c1 = 0.6034	1.67e-06	789.8	1095
298.15 K, c1 = 0.701	2.1e-06	808.51	1100.4
298.15 K, c1 = 0.8013	2.76e-06	825.19	1106.5
298.15 K, c1 = 0.902	3.73e-06	843	1113.8
298.15 K, c1 = 1.007	5.27e-06	860.81	1123
303.15 K, c1 = 0.0981	7.23e-07	695.93	1061.6
303.15 K, c1 = 0.1983	8.13e-07	710.7	1062.4
303.15 K, c1 = 0.2986	9.27e-07	728.39	1064.5
303.15 K, c1 = 0.3988	1.07e-06	745.5	1066.9
303.15 K, c1 = 0.5185	1.32e-06	767	1071.1
303.15 K, c1 = 0.6002	1.56e-06	785.6	1075
303.15 K, c1 = 0.6974	1.93e-06	804.41	1080.5
303.15 K, c1 = 0.7972	2.53e-06	820.98	1086.5
303.15 K, c1 = 0.8975	3.43e-06	838.76	1094.1
303.15 K, c1 = 1.002	4.77e-06	856.54	1103.7
313.15 K, c1 = 0.097	6.55e-07	687.78	1020.3
313.15 K, c1 = 0.1956	7.34e-07	700.9	1021.5
313.15 K, c1 = 0.2946	8.29e-07	718.5	1024
313.15 K, c1 = 0.3949	9.53e-07	738.2	1026.6
313.15 K, c1 = 0.5111	1.17e-06	756.1	1031.3
313.15 K, c1 = 0.5932	1.35e-06	776.5	1035.6
313.15 K, c1 = 0.6899	1.67e-06	795.7	1041.3
313.15 K, c1 = 0.7889	2.12e-06	812.51	1048.1
313.15 K, c1 = 0.8884	2.79e-06	830.24	1055.8
313.15 K, c1 = 0.9921	3.89e-06	847.98	1065.5
323.15 K, c1 = 0.0959	5.95e-07	680.26	979.8
323.15 K, c1 = 0.1937	6.66e-07	694.2	981.2
323.15 K, c1 = 0.2919	7.5e-07	712	984.1
323.15 K, c1 = 0.3904	8.59e-07	729.7	987.1
323.15 K, c1 = 0.505	1.04e-06	747	992.3
323.15 K, c1 = 0.5858	1.19e-06	766.8	996.8
323.15 K, c1 = 0.6822	1.47e-06	786.9	1002.8
323.15 K, c1 = 0.7807	1.83e-06	804.04	1009.9
323.15 K, c1 = 0.8792	2.35e-06	821.7	1018
323.15 K, c1 = 0.982	3.09e-06	839.35	1028
